Laboratory results from patent publication US20250009830A1 (priority 2021, published 2025).
Read-outs that look alike come from different tables or passages of the source.

Legend:
Assay in all cases: microbe, parasite or virus in culture
Assay type in all cases: cell-based
Details in all cases: read-out: IC50 of the main compounds of EC 3.2
[1] = system: SARS-CoV-2 Gamma
[2] = system: SARS-CoV-2 Alpha
[3] = system: SARS-CoV-2 Wuhan type (SARS-CoV-2PR-1)
[4] = system: SARS-CoV-2 Delta
[5] = system: SARS-CoV-2 Omicron
[6] = system: SARS-CoV-2 Beta
[7] = Severe acute respiratory syndrome coronavirus 2, Calu-3, calculated from EC 3.2 IC50 and HPLC analysis (Table 4)
[8] = Calu-3, calculated from EC 3.2 IC50 and HPLC analysis (Table 4)

SMILES | IC50 [1, 7] | IC50 [2, 7] | IC50 [3, 7] | IC50 [4, 7] | IC50 [5, 7] | IC50 [6, 7] | IC50 [1, 8] | IC50 [2, 8] | IC50 [3, 8] | IC50 [4, 8] | IC50 [5, 8] | IC50 [6, 8]
C[C@@H]1O[C@@H](OC[C@H]2O[C@@H](Oc3c(-c4ccc(O)c(O)c4)oc4cc(O)cc(O)c4c3=O)[C@H](O)[C@@H](O)[C@@H]2O)[C@H](O)[C@H](O)[C@H]1O [Rutin] | 51 µM | 68 µM | 17 µM | 34 µM | 34 µM | 51 µM | – | – | – | – | – | –
O=c1c(O[C@@H]2O[C@H](CO)[C@@H](O)[C@H](O)[C@H]2O)c(-c2ccc(O)c(O)c2)oc2cc(O)cc(O)c12 [Isoquercitrin] | 4 µM | 5.4 µM | 1.3 µM | 2.7 µM | 2.7 µM | 4 µM | – | – | – | – | – | –
OC[C@H]1O[C@@H](Oc2cc3c(O)cc(O)cc3[o+]c2-c2ccc(O)c(O)c2)[C@H](O[C@@H]2OC[C@@H](O)[C@H](O)[C@H]2O)[C@@H](O)[C@@H]1O [Cyanidin-3-sambubioside] | – | – | – | – | – | – | 107 µM | 142 µM | 35 µM | 71 µM | 71 µM | 107 µM
OC[C@H]1O[C@@H](Oc2cc3c(O)cc(O)cc3[o+]c2-c2ccc(O)c(O)c2)[C@H](O)[C@@H](O)[C@@H]1O [Cyanidin-3-glucoside] | – | – | – | – | – | – | 123 µM | 165 µM | 41 µM | 82 µM | 82 µM | 123 µM
OC[C@H]1O[C@@H](Oc2cc(O)cc3[o+]c(-c4ccc(O)c(O)c4)c(O[C@@H]4O[C@H](CO)[C@@H](O)[C@H](O)[C@H]4O[C@@H]4OC[C@@H](O)[C@H](O)[C@H]4O)cc23)[C@H](O)[C@@H](O)[C@@H]1O [Cyanidin-3-sambubioside-5-glucoside] | – | – | – | – | – | – | 18 µM | 24 µM | 6 µM | 12 µM | 12 µM | 18 µM
O=C(/C=C/c1ccc(O)c(O)c1)O[C@@H]1C[C@](O)(C(=O)O)C[C@@H](O)[C@H]1O [Chlorogenic acid] | 20 µM | 27 µM | 6.6 µM | 13 µM | 13 µM | 20 µM | – | – | – | – | – | –
